Tests used:
Nucleic Acid = experiment: In vitro binding affinity towards Poly (dA-dT)2; type: nucleic-acid assay
Mus musculus [1] = experiment: In vivo average survival days of mice infected by Trypanosoma brucei rhodesiense was determined for a period of 60 days at i.p. dose of 5 mg/kg; type: functional; conditions: route intraperitoneal
[2] = tested on: Trypanosoma brucei rhodesiense; experiment: In vitro inhibitory activity against Trypanosoma brucei rhodesiense; type: functional, organism-based
Mus musculus [3] = experiment: In vivo average survival days of mice infected by Trypanosoma brucei rhodesiense was determined for a period of 60 days at i.p. dose of 20 mg/kg; type: functional; conditions: route intraperitoneal
Mus musculus [4] = experiment: Number of mice (out of 4) cured from Trypanosoma brucei rhodesiense infection which are parasite free for 60 days was determined at i.p. dose of 20 mg/kg; type: functional; conditions: route intraperitoneal
Plasmodium falciparum = experiment: In vitro inhibitory activity for Plasmodium falciparum; type: functional, organism-based
Mus musculus [5] = experiment: Number of mice (out of 4) cured from Trypanosoma brucei rhodesiense infection which are parasite free for 60 days was determined at i.p. dose of 5 mg/kg; type: functional; conditions: route intraperitoneal
Mus musculus [6] = experiment: In vivo average survival days of mice infected by Trypanosoma brucei rhodesiense was determined for a period of 60 days at p.o. dose of 100 mg/kg; type: functional; conditions: route oral
Mus musculus [7] = experiment: Number of mice (out of 4) cured from Trypanosoma brucei rhodesiense infection which are parasite free for 60 days was determined at p.o. dose of 100 mg/kg; type: functional; conditions: route oral
Mus musculus [8] = experiment: In vivo average survival days of mice infected by Trypanosoma brucei rhodesiense was determined for a period of 60 days at p.o. dose of 75 mg/kg; type: functional; conditions: route oral
Mus musculus [9] = experiment: Number of mice (out of 4) cured from Trypanosoma brucei rhodesiense infection which are parasite free for 60 days was determined at p.o. dose of 75 mg/kg; type: functional; conditions: route oral
Mus musculus [10] = experiment: Number of mice (out of 4) cured from Trypanosoma brucei rhodesiense infection which are parasite free for 60 days was determined at i.p. dose of 10 mg/kg; type: functional; conditions: route intraperitoneal
Mus musculus [11] = experiment: In vivo average survival days of mice infected by Trypanosoma brucei rhodesiense was determined for a period of 60 days at i.p. dose of 10 mg/kg; type: functional; conditions: route intraperitoneal
Mus musculus [12] = experiment: Number of mice (out of 4) cured from Trypanosoma brucei rhodesiense infection which are parasite free for 60 days was determined at p.o. dose of 50 mg/kg; type: functional; conditions: route oral
Mus musculus [13] = experiment: In vivo average survival days of mice infected by Trypanosoma brucei rhodesiense was determined for a period of 60 days at p.o. dose of 50 mg/kg; type: functional; conditions: route oral

SMILES | ΔTm (Nucleic Acid) | IC50 [2] [nM] | Survival (Mus musculus [3]) [days] | No. of cures (Mus musculus [4]) | IC50 (Plasmodium falciparum) [nM] | other results
N=C(N)c1ccc(-c2ccc(-c3cn4c(n3)CCC(C(=N)N)C4)o2)cc1 (stereo not drawn) | 15.6 | 52 | >60 | 4 | 1200 | Survival (Mus musculus [1]): >51 days; No. of cures (Mus musculus [5]): 2
N=C(N)c1ccc(-c2cccc(-c3cn4c(n3)CCC(C(=N)N)C4)c2)cc1 (stereo not drawn) | 19.1 | 226 |  |  | 86 | 
N=C(N)c1ccc(OCCCCCOc2ccc(C(=N)N)cc2)cc1 [PENTAMIDINE] |  |  |  | 0 |  | 
CONC(=N)c1ccc(-c2ccc(-c3ccc(C(=N)NOC)cc3)o2)cc1 [PAFURAMIDINE] | 25 | 4.5 |  |  | 15.5 | Survival (Mus musculus [6]): >60 days; No. of cures (Mus musculus [7]): 4
N=C(NO)c1ccc(-c2ccc(-c3cn4cc(/C(N)=N/O)ccc4n3)cc2)cc1 |  |  |  |  | 521 | Survival (Mus musculus [8]): 28 days; No. of cures (Mus musculus [9]): 0
N=C(N)c1ccc(-c2ccc(-c3cn4c(n3)CCC(C(=N)N)C4)cc2)cc1 (stereo not drawn) | 21.3 | 116 |  |  | 14 | No. of cures (Mus musculus [10]): 3; Survival (Mus musculus [11]): >51.5 days
CONC(=N)c1ccc(-c2ccc(-c3cn4cc(C(=N)NOC)ccc4n3)cc2)cc1 | 0.3 | 5300 |  |  | 395 | Survival (Mus musculus [8]): 20 days; No. of cures (Mus musculus [9]): 0
Cc1cc(C(=N)N)cn2cc(-c3cccc(-c4ccc(C(=N)N)cc4)c3)nc12 | > 27 | 49 | >50 | 3 | 86 | 
N=C(N)c1ccc(-c2cccc(-c3cn4cc(C(=N)N)ccc4n3)c2)cc1 | > 27 | 22 | >60 | 4 | 107 | 
CONC(=N)c1ccc(-c2ccc(-c3cn4cc(C(=N)NOC)ccc4n3)o2)cc1 |  | 3000 |  |  | 2800 | Survival (Mus musculus [6]): >39.5 days; No. of cures (Mus musculus [7]): 2
N=C(N)c1ccc(-c2ccc(-c3cn4cc(C(=N)N)ccc4n3)o2)cc1 | 26.2 | 63 | >60 | 4 | 14 | 
N=C(NO)c1ccc(-c2ccc(-c3cn4cc(/C(N)=N/O)ccc4n3)o2)cc1 |  | 2200 |  |  | 1600 | No. of cures (Mus musculus [12]): 1; Survival (Mus musculus [13]): >19.5 days
Cc1cc(C(=N)N)cn2cc(-c3ccc(-c4ccc(C(=N)N)cc4)o3)nc12 | > 27 | 6 | >60 | 4 | 88 | 
N=C(N)c1ccc(-c2ccc(-c3cn4cc(C(=N)N)ccc4n3)cc2)cc1 | 24.2 | 1 | >60 | 4 | 43 | 
N=C(N)c1ccc(-c2ccc(-c3ccc(C(=N)N)cc3)o2)cc1 [FURAMIDINE] |  |  |  | 0 |  | 
